Assay results reported in article PMC12707362, “Targeting Aurora Kinases as Essential Cell‐Cycle Regulators to Deliver Multi‐Stage Antimalarials Against Plasmodium Falciparum” (Angewandte Chemie (International Ed. in English), 2025).
Read-outs that look alike come from different tables or passages of the source.

Legend:
recombinant PfArk3 = assay: KinaseSeeker three-hybrid split-luciferase competitive binding assay, PfArk3; set-up: species or system Plasmodium falciparum; conditions: single point 1 µM
Method: Supplementary Figure S3: (A) Single-point activity profile of selected inhibitors at 1 µM against recombinant PfArk-1 and PfArk-3 proteins, utilising a three-hybrid split-luciferase competitive binding assay (KinaseSeeker™).

PfNF54 schizonts = assay: Stage-specific morphological evaluation, nuclei count per schizont; type: cell-based, Plasmodium falciparum; conditions: TAE684 3xIC50, hesperadin IC99; n = 30
Method: Nuclei content was detected by consecutive staining with SYBR Green I (DNA fluorescence), detected in the FITC channel.
To determine the stage specificity during asexual intra-erythrocytic development, P. falciparum NF54 parasites were synchronised using 5% D-Sorbitol to obtain a >90% ring-stage population (6–10 h post-invasion, hpi). […] The rate of activity and stage-specificity was monitored morphologically using Giemsa-stained thin smears. Asexual intra-erythrocytic stage parasites were treated at ring, early/late trophozoite, and schizont stages, sampling every 12 h over a 48-hour period. Images were captured using a Nikon Eclipse 50i light microscope adapted with a Nikon camera (Nikon DS-Fi1) and NIS-Elements software. […] Parasite progression was monitored every 12 h over a 48-h period using flow cytometry, as described in^[11]. The IC50 speed assay was conducted as described in^[12]. Briefly, unsynchronised P. falciparum NF54 asexual proliferation was determined using a SYBR Green I proliferation-based assay and expressed as IC50 values as described earlier. Four incubation times were employed for each inhibitor: 96 (standard assay time), 72, 48 and 24 h. IC50 values were obtained from corrected dose-response curves using Graph-Pad Prism v10.5.

[1] = system: P. berghei liver schizonts in HepG2-A16-CD81EGFP cells; assay: P. berghei (PbLuc) liver stage assay; type: cell-based; conditions: Plasmodium berghei
From the text: (B) Antiplasmodial activity of nine anticancer aurora kinase inhibitors (selected based on their PfNF54 ABS activity) against P. falciparum multidrug-resistant ABS parasites (PfDd2 and PfK1). (C) Kinobead competitive inhibition data.
Plasmodium berghei (Pb) sporozoites were obtained by dissecting the salivary glands of infected Anopheles stephensi mosquitoes. These were provided by The SporoCore, at the University of Georgia, GA, USA (SporoCore.uga.edu). The parasites utilised a GFP-Lucama1-eef1 reporter line^[5]. These engineered parasites, termed Pb-Luc, were used to infect HepG2-A16-CD81EGFP cells. HepG2-A16-CD81EGFP cells stably transformed to express a GFP-CD81 fusion protein^[6] were cultured at 37 °C in 5% CO2 in DMEM (Invitrogen, Carlsbad, USA) supplemented with 10% FBS (Corning, NY, USA), 1X Pen/Strep/Glu (Thermo Fisher Scientific, USA). Compounds were prepared as 10 mM solutions in DMSO, and 10 nL of each (resulting in a final DMSO concentration of 0.1% per well) was transferred into assay plates using an ECHO 650 (Beckman). Concentrations ranged from 10 µM to 0.5 nM. Atovaquone (0.1 µM) served as a positive control, while 0.1% DMSO was used as a negative control. Liver stage (PbLuc) screening has been previously described^[7]. Human hepatic cells (3 × 10^3; HepG2-A16-CD81-EGFP) suspended in 5 µL of DMEM medium ([…], supplemented with 5% FBS, 5× Pen/Strep/Glu) were seeded in 1536-well plates (Greiner BioOne) using the MultiFlo FX (Agilent) 20 h before infection. PbLuc sporozoites, isolated from the salivary glands of A. stephensi mosquitoes, were filtered twice through a 20 µm nylon pore cell strainer. The sporozoites were resuspended in screening media, counted with a hemocytometer, and diluted to a final concentration of 200 sporozoites per µL. Each well received 1,000 sporozoites in 5 µL, dispensed via the GNF Dispenser II (GNF Systems). […] Luminescence was measured immediately with the Pherastar FSX reader (BMG Labtech). Luminescence values were normalized using the positive and negative controls. EC50 values were calculated with CDD Vault (Burlingame, CA). […]

[2] = system: pool of barcoded drug-resistant P. falciparum parasites (Dd2 and 3D7 backgrounds); type: cell-based, Plasmodium falciparum; conditions: 3xIC50
Method: The pool consisted of 52 lines (Supplementary File S2) in both the Dd2 and 3D7 backgrounds, including wild-type, that were barcoded at the pfpare locus (PF3D7_0709700)^[18], with unique 11-bp barcode sequences. The pool (triplicate cultures of 1 mL) was exposed to 3 xIC50 of each test compound, including the positive control compound halofuginone that targets prolyl tRNA synthetase. Growth of the pool was measured every 2–3 days by flow cytometry (Beckman CytoFlex 5), staining with 1xSYBR Green I and 200 nM MitoTracker Deep Red, and parasitemia maintained within a range <5% parasitemia. At day 14, samples were harvested, lysed with 0.05% saponin and parasite pellets collected. Barcodes were amplified by PCR and quantified by sequencing using an Oxford Nanopore minION. The change in barcode proportion (log2 fold change, LFC) was measured relative to the no-drug control, with LFC>2.5 indicating cross-resistance.

Plasmodium kinases = assay: Kinobead competitive inhibition; type: binding; conditions: 10 µM, log2 fold change below -1 versus vehicle
recombinant PfNek1 = assay: KinaseSeeker single-point assay, PfNek1; type: binding, Plasmodium falciparum; conditions: single point 1 µM

Structure (SMILES): CCN1CCN(C(=O)Cc2ccc(Nc3ncc(F)c(Nc4ccc(C(=O)Nc5ccccc5Cl)cc4)n3)cc2)CC1 [AAi I, Aurora A Inhibitor I]
- inhibition of PfArk3 (recombinant PfArk3): 40%

Structure (SMILES): COc1cc(N2CCC(N3CCN(C)CC3)CC2)ccc1Nc1ncc(Cl)c(Nc2ccccc2S(=O)(=O)C(C)C)n1 [TAE684, NVP-TAE684]
- number of daughter merozoites per schizont (PfNF54 schizonts): significant reduction in the number of daughter merozoites
- IC50 ([1]; read-out: IC50 P. berghei liver schizonts): < 0.2 µM
- IC50 ([1]; 48 h, PbLuc, read-out: Pb liver stage IC50): 0.66 µM
- barcode population Day 14 ([2]; line 3D7 (Wild type)): 5.080
- barcode population Day 14 ([2]; line 3D7 ABCI3 R2180P): 2.690
- barcode population Day 14 ([2]; line 3D7 ACS10 M300I): 3.200
- barcode population Day 14 ([2]; line 3D7 ACS11 D648Y): 0.620
- barcode population Day 14 ([2]; line 3D7 ATP2 CNV2): 2.100
- barcode population Day 14 ([2]; line 3D7 DHFR-TS G378E): 0.990
- barcode population Day 14 ([2]; line 3D7 DHFR-TS I403L): 3.400
- barcode population Day 14 ([2]; line 3D7 FTb A515T): 1.770
- barcode population Day 14 ([2]; line 3D7 MDR2 K840N): 1.670
- barcode population Day 14 ([2]; line 3D7 NCR1 A1108T): 2.230
- barcode population Day 14 ([2]; line Dd2 (Wild type)): 5.040
- barcode population Day 14 ([2]; line Dd2-pol-delta D308A-E310A): 0.01
- barcode population Day 14 ([2]; line Dd2 ATP4 G358S): 1.130
- barcode population Day 14 ([2]; line Dd2 ATP4 L927V): 1.370
- barcode population Day 14 ([2]; line Dd2 ATP4 Q172H): 3.070
- barcode population Day 14 ([2]; line Dd2 AcAS A597V): 0.650
- barcode population Day 14 ([2]; line Dd2 AcAS T648M): 2.430
- barcode population Day 14 ([2]; line Dd2 AsnRS R487S): 1.530
- barcode population Day 14 ([2]; line Dd2 CARL I1139K-a): 0.010
- barcode population Day 14 ([2]; line Dd2 CARL I1139K-b): 0.230
- barcode population Day 14 ([2]; line Dd2 CARL V1103L): 0.680
- barcode population Day 14 ([2]; line Dd2 CLK3 H259P): 1.590
- barcode population Day 14 ([2]; line Dd2 CPSF Y408S E): 1.340
- barcode population Day 14 ([2]; line Dd2 CPSF Y408S S): 0.580
- barcode population Day 14 ([2]; line Dd2 CRT M343L): 2.390
- barcode population Day 14 ([2]; line Dd2 CSC1 L800P): 1.280
- barcode population Day 14 ([2]; line Dd2 DHFR-TS S216R): 1.710
- barcode population Day 14 ([2]; line Dd2 DHODH C276Y): 3.290
- barcode population Day 14 ([2]; line Dd2 DHODH F227I): 0.650
- barcode population Day 14 ([2]; line Dd2 DHODH I263F): 0.120
- barcode population Day 14 ([2]; line Dd2 DHODH L531F): 0.480
- barcode population Day 14 ([2]; line Dd2 GGPPS S228T): 0.800
- barcode population Day 14 ([2]; line Dd2 HSP90 A41S): 2.760
- barcode population Day 14 ([2]; line Dd2 IleRS E180D): 2.660
- barcode population Day 14 ([2]; line Dd2 IleRS L810F): 1.180
- barcode population Day 14 ([2]; line Dd2 IleRS V500A): 0.960
- barcode population Day 14 ([2]; line Dd2 MCP D195N): 0.270
- barcode population Day 14 ([2]; line Dd2 MCP P214T): 5.790
- barcode population Day 14 ([2]; line Dd2 PI4K S743F+H1484Y): 1.350
- barcode population Day 14 ([2]; line Dd2 PI4K S1320L+L1418F): 1.960
- barcode population Day 14 ([2]; line Dd2 PROTB5 A20V): 1.090
- barcode population Day 14 ([2]; line Dd2 PROTB5 M45I): 1.500
- barcode population Day 14 ([2]; line Dd2 ProRS L482H): 6.690
- barcode population Day 14 ([2]; line Dd2 QRP1 D1863Y): 5.420
- barcode population Day 14 ([2]; line Dd2 TyrRS S234C): 2.590
- barcode population Day 14 ([2]; line Dd2 UDP-GT F37V): 0.250
- barcode population Day 14 ([2]; line Dd2 cytBC1 G33V): 1.410
- barcode population Day 14 ([2]; line Dd2 cytBC1 V284L): 1.550
- barcode population Day 14 ([2]; line Dd2 eEF2 L755F): 1.200
- barcode population Day 14 ([2]; line Dd2 eEF2 Y186N): 1.260
- barcode population Day 14 ([2]; line Dd2 kelch13 C580C): 2.860
- barcode population Day 14 ([2]; line Dd2 kelch13 C580Y): 2.440
- barcode population Day 14 ([2]; line Dd2 kelch13 R539T): 0.670
- Plasmodium kinases competed from Kinobeads (Plasmodium kinases): three Plasmodium kinases were competed from Kinobeads
- effect on PfNek1 (recombinant PfNek1): 40%
